The METLIN SMRT retention time set (Domingo-Almenara et al. 2019)

Assay: gradient 5% acetonitrile 3 min, to 50% in 2 min, to 85% in 15 min, held 3 min, 100 µL/min
Conditions: column: Zorbax Extend-C18 2.1 x 50 mm; eluents: water / acetonitrile, 0.1% formic acid
In short: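 A Zorbax Extend-C18 column (2.1 × 50 mm, 1.8 μm) run at 100 μL/min with water and acetonitrile, both containing 0.1% formic acid, separated mixtures of ~100 pure standards. The HPLC was coupled to a quadrupole time-of-flight mass spectrometer operated in positive and negative ionization mode, with dead and dwell volumes of 40 μL and 900 μL. Each retention time was taken from a computationally picked adduct peak that was then manually inspected.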

Structure (SMILES)	RP-LC retention time [s]
CCCn1c(C2CCN(C(=O)Nc3cccc(C)c3)C2)nc2cccnc21 (stereo not drawn)	713
CCc1nc(OCC(=O)Nc2ccccc2Cl)c2ccccc2n1	831
COc1ccc(-n2c(=O)n(C)c(=O)c3cc(C(=O)Nc4cc(F)cc(F)c4)cnc32)cc1	970
COc1ccc(-c2ccnc3nc(C4CC4)nn23)c(F)c1	797
COc1ccc(-c2nn(CCCC(=O)NCCc3ccc(C)cc3)c(=O)c3noc(C)c23)cc1	950
COc1cccc(CNC(=O)Cn2c(-c3ccc(F)cc3)ncc(C#N)c2=O)c1	873
O=C(Cn1ccn2nc(-c3ccccc3)c(CO)c2c1=O)N1CCc2ccccc21	848
Cc1cccc(NC(=O)C2CCCN(S(=O)(=O)c3cc(-c4noc(C5CCC5)n4)cs3)C2)c1 (stereo not drawn)	1130
CCOC(=O)[C@H]1O[C@@H]1C(=O)N[C@@H](CC(C)C)C(=O)NCCC(C)C	992
COc1ccc(NC(=O)C2CC(=O)N(c3ccc4oc(C)nc4c3)C2)cc1F (stereo not drawn)	733
COCCOc1ccc2c(n1)CCN(C(=O)NC1CCCCC1)C2	760
CC1CCCN(S(=O)(=O)c2cc(C(=O)N3CCCc4ccccc43)n(C)c2)C1 (stereo not drawn)	1060
Cc1cc(NC(=O)C2CCN(C(=O)C3(c4cccs4)CCCC3)CC2)no1	800
Cc1ccc(C)c(C(=O)N2CCc3nc(-c4ccc(F)cc4)ncc3C2)c1	1060
CC1CCN(c2ccc(-c3noc(CN4CCN(CC(=O)NC(C)C)CC4)n3)cn2)CC1	646
CCCNc1cc(N2CCCC(CCC(=O)NCc3ccccn3)C2)ncn1 (stereo not drawn)	550
O=C(CN1CC(c2nc(Cc3ccccc3)no2)C1)NCc1ccc(F)cc1	595
Cc1ccc(Cl)cc1NC(=O)N1CCCC1c1c(C)noc1C (stereo not drawn)	853
O=C(Cn1nc2c(cc1=O)CCCC2)NCCc1c[nH]c2ccc(F)cc12	753
COc1ccc(-c2nc(NCCN3CCC(C)CC3)c3ccccc3n2)cc1	580
Cn1c(=O)n(C)c2cc(CNc3ccc(O)cc3)ccc21	1190
CC1=C(c2ccc(C)cc2)S(=O)(=O)N=C1N1CCCN(C(=O)C2CCC2)CC1	818

Structure (SMILES)	RP-LC retention time [s]
CCOc1ccc(S(=O)(=O)N2CCC(c3noc(-c4cccc(OC)c4)n3)CC2)cc1	1150
Cc1ccccc1-c1nocc1CCC(=O)O	651
Cc1ccc(N(C)C(=O)C2CCCN(c3ncnc4c3nc3n4CCCCC3)C2)cc1C (stereo not drawn)	897
COc1ccc(CNC(=O)c2cn(C)nc2S(=O)(=O)N2CCC(C)CC2)cc1	904
COc1cc(=O)n2c(c1C(=O)Nc1ccc(Br)cc1)CCCC2	760
CCC(C)NC(=O)c1cn(CCOC)cc2c(=O)n(-c3ccccc3)nc1-2 (stereo not drawn)	819
CCCc1nc(NC(C)c2ccc(OC)c(OC)c2)ncc1C(=O)O (stereo not drawn)	750
O=C(CN1C(=O)C(C(=O)N2CCCC2)Sc2ccccc21)Nc1ccc(F)c(F)c1 (stereo not drawn)	1040
O=C(NCCN1CCCc2ccccc21)C1CCCN(c2ncnc3c2nc2n3CCCCC2)C1 (stereo not drawn)	877
Cc1cc(C)c(S(=O)(=O)N2CCCCC2)c(C)c1N(C)S(=O)(=O)c1ccccc1	1060
O=C(NCC1CCN(C(=O)Nc2ccc(F)cc2)CC1)Oc1ccccc1	772
CCCc1noc(-c2ccnc(-n3cnc(C(=O)NC(C)C)c3)c2)n1	849
Cc1ccn2c(Nc3ccc4c(c3)OCCO4)c(-c3cccc(Br)c3)nc2c1	739
COc1ncc(C(=O)N2CCN(c3ccc(F)cc3)CC2)cn1	735
Cc1ccc(Cl)cc1-n1ncc2c(=O)n(Cc3nc(-c4cccc(F)c4)no3)cnc21	1210
Cc1cccc(-n2nnc(C(=O)O)c2-c2cccnc2)c1	650
COc1ccc(S(=O)(=O)N2CCCC(c3nn[nH]n3)C2)cc1 (stereo not drawn)	714
CCN1CCN(C(=O)c2cn(-c3ccc(S(=O)(=O)N4CCCC(C)C4)cn3)cn2)CC1 (stereo not drawn)	659
COc1cccc(CNC(=O)C2(C)CCCN(C(=O)Nc3ccccc3C(F)(F)F)C2)c1 (stereo not drawn)	934
CCc1nc2ccccc2c(=O)n1Cc1noc(C2CC(=O)N(c3ccc(C)c(C)c3)C2)n1 (stereo not drawn)	927
Cc1oc(C2CCN(C(=O)Cc3ccccc3Cl)CC2)nc1C(=O)N1CCOCC1	716
O=C(Cn1c(=O)n(-c2ccccc2)c2ncccc21)NCCN1CCCCC1	585

Structure (SMILES)	RP-LC retention time [s]
Cc1cccc2nnc(N3CCC(C(=O)N4CCOCC4)CC3)n12	568
CNC(=O)c1cc[nH]c1C1CCCN(C(=O)c2ccc(Br)o2)C1 (stereo not drawn)	674
O=C(c1ccc(Cl)cc1)N1CCN(c2ccc([N+](=O)[O-])c3ncccc23)CC1	957
COc1ccc(-c2noc(CN3N=NC4C(=O)N(c5ccc(C)c(F)c5)C(=O)C43)n2)c(OC)c1 (stereo not drawn)	844
COc1ccc(-c2nnc(COc3ccc(NC(=O)c4n[nH]c5c4CCCC5)cc3)o2)cc1	907
CC(C)NC(=O)N(C1CC1)C1CCOC2(CCN(C(=O)c3ccco3)CC2)C1 (stereo not drawn)	707
O=C(NCc1ccc(C(F)(F)F)cc1)C1CCN(c2nnc(-c3ccccc3)o2)CC1	901
O=C(NCc1ccco1)c1cc2c(s1)CCN(C(=O)c1ccc(Cl)cc1)C2	846
CCOc1ccc(C(=O)NCCc2c[nH]c3ccc(C)cc23)cc1OCC	910
CCC(=O)Nc1ccc(CCc2nc3ccc(C(=O)NC4CCCCCC4)cc3[nH]2)cc1	671
COC1CN(c2ccc(C)cc2)C12CCN(C(=O)C1(c3ccccc3)CC1)CC2 (stereo not drawn)	1100
CC(C)(C)NC(=O)N1CCN(c2cc(-c3cccc(F)c3)ncn2)CC1	669
CCN1c2cc(Cl)ccc2C(=O)NC12CCN(C(=O)NCc1ccc(F)cc1)CC2	840
COc1ccc(Cl)cc1NC(=O)N1CCC(n2cnc3ccc(F)cc3c2=O)CC1	871
Cc1ccc(NC(=O)Cn2nc3cc(-c4ccccc4)nc(C)n3c2=O)cc1F	976
CC(=O)OCOC(c1ccc2ccccc2c1)P(=O)(OCOC(C)=O)OCOC(C)=O (stereo not drawn)	854
Cc1sc2c(c1C)C(c1ccc(Cl)cc1)=N[C@@H](CC(=O)Nc1ccc(O)cc1)c1nnc(C)n1-2	922
O=C1NCCCn2cc(S(=O)(=O)N3CCN(Cc4ccccc4)CC3)cc21	758
Cc1ccc(-n2nc(C)c3sc(N4CCCC(C(=O)NC5CCCC5)C4)nc32)cc1 (stereo not drawn)	1150
CCC(C(=O)N1CCN(C(=O)c2ccco2)CC1)n1c2ccccc2c2cnn(C)c(=O)c21 (stereo not drawn)	801
CCn1c(-c2ccccc2)nc2ccccc21	623
Cc1cc(C(=O)NCc2ccco2)c2cccc(-c3ccccc3)c2n1	936

Structure (SMILES)	RP-LC retention time [s]
Cc1ccc(C(=O)NCc2ccc3c(c2)ncn3C)c(C)c1	611
CC(=O)N1CCCc2cc(S(=O)(=O)CCC(=O)Nc3ccc(Br)cc3C)ccc21	829
COc1cc(NC(=O)N2CC3CCCN3c3ccccc32)cc(OC)c1OC (stereo not drawn)	702
CCOc1ccc(/C=C/c2nc3ccccc3n(C)c2=O)cc1	933
Cc1ccsc1C(=O)Nc1ccc(N2CCN(Cc3ccccc3)C2=O)nc1	834
Cc1cc2n(n1)CCC(=O)N2CCCC(=O)NCCN(C)C1CCCCC1	576
CN1C(=O)C2CCCCN2c2ccc(C(=O)NCCN3CCCCC3)cc21 (stereo not drawn)	609
COc1ccc(Cl)cc1NC(=O)C1CCN(S(C)(=O)=O)c2ccccc2O1 (stereo not drawn)	1030
Cc1ccnc(NS(=O)(=O)c2ccc(NC(=O)c3ccc4ncsc4c3)cc2)n1	626
CCn1ccc(C(=O)NC(C(=O)N2CCCc3ccccc32)c2ccccc2)n1 (stereo not drawn)	967
COc1ccc(CNC(=O)N2CC(Oc3ccc(-c4nc(C)no4)cc3)C2)cc1	825
O=C(O)c1ccc(N2CCCCC2)cc1O	828
CCOc1ccccc1NC(=O)N1C[C@@H](F)C[C@H]1C(=O)N1CCc2ccccc2C1	819
Cc1ccccc1-c1nn2c(CSc3ccccc3)nnc2s1	1030
O=c1n(CCOc2ccc(F)cc2)nc2ccc(S(=O)(=O)N3CCOCC3)cn12	811
Cc1nc2cc(-c3noc(C(C)Oc4ccccc4)n3)ccc2n(C2CCCC2)c1=O (stereo not drawn)	1310
COc1c(C)cnc(Cn2ccn3nc(-c4ccc(F)cc4)c(CO)c3c2=O)c1C	843
COc1ccc(NC(=O)c2cn3c(n2)CCCC3)cc1Cl	609
Cc1ccc(CS(=O)(=O)N2CCc3nc(-c4ccc(Cl)cc4)ncc3C2)cc1	1210
O=C(NCC1CC1)C1CCN(c2nc3ccsc3c(=O)n2Cc2ccccc2)CC1	814
CCOc1ccccc1-c1nc(CN(c2ccccc2OC)S(=O)(=O)c2ccccc2C)c(C)o1	1250
O=C(CCCn1c(=O)c2cccn2c2ccc(Br)cc21)NCc1ccco1	864
